SMILES strings stand for the structures.

The subject of the series is MDA-MB-468 cell line. Kind of series: Resazurin viability assay. In kind it is cell-based, human. Conditions: MDA-MB-468 cells. The protocol:
Cell Culture. The MDA-MB-468 cell line was from ATCC. This cell line was established from a pleural effusion of patient with metastatic breast adenocarcinoma. The cells were maintained in RPMI medium supplemented with 10% (v/v) FBS, 0.3 mg/mL L-glutamine, and 0.1 mg/mL gentamicin at 37° C. in 5% CO2. Sub-culture using trypsin-EDTA was performed every 3-4 days with a split ratio of 1:3-1:6 to ensure actively proliferating cells. Resazurin Viability Assay. Cells were seeded in fully supplemented medium at a density of 7 000 cells per well in 96 well plates. After 24 hrs of cultivation, when the cells were 60% confluent, the medium was replaced with serum free medium to ensure synchronization of the cells and to increase cell sensitivity to treatment. Following 16 hrs of serum starvation, the medium was replaced with fresh serum free medium with or without Compound […], Norway), and NVP-BEZ235 (Cayman Chemicals, US) or solvent (DMSO, Sigma Aldrich, US). The cells were observed under the microscope to evaluate possible morphology changes and signs of stress before the addition of resazurin according to the manufacturers instructions (RnD Systems, UK). Resazurin was metabolized for 2 hrs (37° C., 5% CO2) before fluorescence was read at 544 nm excitation and 590 nm emission wavelengths (BioTek Synergy HT).
Background: Alamar Blue is a resazurin reagent that responds to reducing activity.

In the case of `Cn1c(=O)n(-c2ccc(C(C)(C)C#N)cc2)c2c3cc(-c4cnc5ccccc5c4)ccc3ncc21` [BEZ235], the cytotoxicity at 5 µM (Homo sapiens, serum free medium, 5 μM of each inhibitor, 24 hrs of treatment, read-out: reduction of viability) is approximately 30%. The “toxicity to the cells, each inhibitor alone (initial experiments)” value (25-100 μM, results not shown) is reported as “toxic”. Under “doses 1-5 μM, results not shown”, the “signs of cellular stress or cytotoxicity, each inhibitor alone (initial experiments)” value is “little or no signs of cellular stress of cytotoxicity”.

Values taken from patent US10953004B2, “Combination therapy for proliferative diseases” (Avexxin AS, priority 2016, dated 2021).
